Test results: PMC2929814 (Journal of medicinal chemistry, 2010)
Read-outs that look alike come from different tables or passages of the source. Blank lines part the entries; values can stand above or below the molecule they belong to.

Tests used:
mouse spleen lymphocytes = experiment: Cytotoxicity against mouse spleen lymphocytes; conditions: estimated ±50%
[1] = test system: P. falciparum D6 (CQS) strain; experiment: Activity against CQ-sensitive P. falciparum D6 in red cell culture; format: cell-based, Plasmodium falciparum
parasitemia = conditions: mouse model, oral dosing; cited from earlier work
[2] = test system: P. falciparum D6 (CQS) strain; conditions: read-out: IC50 against the D6 strain; reported value; cited from earlier work

IC50 ([1]; Plasmodium falciparum, D6, read-out: IC50 D6 (CQS)): 7 nM
SMILES: CCN(CC)CCCC(C)Nc1ccnc2cc(Cl)ccc12 (stereo not shown) [CQ, chloroquine, reference compound]
Cytotoxicity (mouse spleen lymphocytes): 12 µM

SMILES: CN(CCCNc1ccnc2cc(Cl)ccc12)CCCN1c2ccccc2CCc2ccccc21 [Compound 1]
Cytotoxicity (mouse spleen lymphocytes): 0.7 µM | parasitemia cleared to (parasitemia): < 1%

SMILES: Clc1ccc2c(NCCCNCCCCN(Cc3ccccc3)Cc3ccccc3)ccnc2c1 [Compound 5]
Cytotoxicity (mouse spleen lymphocytes): 1.3 µM

SMILES: Clc1ccc2c(NCCN(CCN(Cc3ccccc3)Cc3ccccc3)CCN(Cc3ccccc3)Cc3ccccc3)ccnc2c1 [Compound 7]
Cytotoxicity (mouse spleen lymphocytes): 6.2 µM

SMILES: O=C(CNCCNc1ccnc2cc(Cl)ccc12)N(c1ccccc1)c1ccccc1 [Compound 10]
Cytotoxicity (mouse spleen lymphocytes): 62 µM | therapeutic index (cytotoxicity/efficacy) for D6 ([1]; cytotoxicity / IC50 D6): 12,000

SMILES: Clc1ccc2c(N3CCN(CCN(Cc4ccccc4)Cc4ccccc4)CC3)ccnc2c1 [Compound 11]
Cytotoxicity (mouse spleen lymphocytes): 61 µM

SMILES: Clc1ccc2c(N3CCN(CCCN4CCN(c5ccnc6cc(Cl)ccc56)CC4)CC3)ccnc2c1 [piperaquine, 1,3-bis-[4-(7-chloroquinolyl-4)-piperazinyl-1]-propane]
IC50 [2]: < 10 nM
